Results taken from patent US5840690A, “Regulation of cell proliferation and differentation using peptides” (priority 1995, dated 1998).

How the values were obtained:
[1] = tested on: cultured human keratinocytes; conditions: cited from earlier work
[2] = tested on: psoriasis; conditions: provided either orally or topically; cited from earlier work
[3] = tested on: cultured human keratinocytes; experiment: Keratinocyte culture: counts of total cells, basal cells and cornified envelopes; assay type: cell-based
Procedure: Keratinocytes were grown in culture as follows. NIH 3T3 cells were plated at 0.5×10^5 cells per 35-mm tissue-culture dish, and two days later were lethally irradiated with a cobalt-60 source (5000 rads). Keratinocytes were obtained from neonatal foreskin after overnight trypsinization at 4° C. and treatment with 0.02% EDTA. Keratinocytes were plated in 2 ml of serum-free medium per dish on the lethally irradiated 3T3 cells. Each experiment was performed on primary or secondary keratinocyte cultures obtained from different skin samples.
In addition, 1,25-(OH)2 D3 was tested, alone and in combination with PTH (7-34), and PTH (1-34) and PTH (7-34) were tested together.
Beginning at one week in culture, groups of triplicate plates of keratinocytes were incubated with the aforementioned compounds or vehicle alone. After one week of dosing, the medium was removed from each culture and centrifuged, and the pellet was resuspended for the counting of the desquamated floater cells. A hemacytometer was used to count the different cell types under a phase-contrast microscope. The attached cells were then trypsinized for 30-40 min with 0.1 EDTA and 0.1% trypsin and then neutralized with medium. The keratinocytes were pelleted and resuspended in a known volume of medium. Duplicate aliquots were taken for counting the basal (small, rounded) and squamous (larger, irregular-shaped, flattened) cells. The remaining cells were pelleted and treated with 10 mM Tris-HCl (pH 7.4) with 1% beta-mercaptoethanol and 1% sodium dodecyl sulfate (SDS) at room temperature for 10 min. Only cells with cornified envelopes were present after this treatment.
Each culture was thus evaluated for its total cell content, number of basal cells, and cornified envelopes, as described above.

[4] = tested on: tumor cells (for example, HL-60, U937, and M-1); conditions: tumor cells that possess a receptor for 1,25(OH)2 D3; cited from earlier work
[5] = tested on: cultured human fibroblasts; conditions: cited from earlier work

C=C1/C(=C\C=C2/CCC[C@]3(C)[C@@H]([C@H](C)CCCC(C)(C)O)CC[C@@H]23)C[C@@H](O)C[C@@H]1O [1,25(OH)2 D3, 1,25-dihydroxyvitamin D3]
proliferation of cultured human keratinocytes [1]: inhibits the proliferation
terminal differentiation of keratinocytes [1]: induces keratinocytes to terminally differentiate
value in the treatment of psoriasis [2]: of value in the treatment of psoriasis
total number of cells and number of basal cells ([3]; 1,25(OH)2 D3 alone, one week of dosing, FIGS. 2-5): decreased in a dose-dependent manner
total number of cornified envelopes, percent of control ([3]; compound alone, FIGS. 6 and 7): increased, in a dose-dependent manner
differentiation of tumor cells [4]: induces them to differentiate
proliferation of tumor cells [4]: inhibits their proliferation
proliferation of cultured human fibroblasts [5]: inhibits the proliferation
